How the values were obtained:
Assay type in all cases: in vivo
Abutilon theophrasti [1] = assay: Herbicidal activity, preemergence test; details: pre; sprayed onto soil, 800 g of active material per hectare; evaluated 3 weeks after treatment
How it was run: (§1)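 First, test compound in acetone containing 0.4% Triton X-155 is diluted with water. Next, it is sprayed at 800 g/ha (900 L/ha) onto freshly seeded loam (pre) or onto seedlings (post). Finally, plants are scored 0-9 visually after 3 or 2 weeks, respectively.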

Alopecurus myosuroides [2] = assay: Herbicidal activity, preemergence test; details: pre; sprayed onto soil, 800 g of active material per hectare; evaluated 3 weeks after treatment
How it was run: as §1

Amaranthus retroflexus [3] = assay: Herbicidal activity, preemergence test; details: pre; sprayed onto soil, 800 g of active material per hectare; evaluated 3 weeks after treatment
How it was run: as §1

Ambrosia artemisifolia [4] = assay: Herbicidal activity, preemergence test; details: pre; sprayed onto soil, 800 g of active material per hectare; evaluated 3 weeks after treatment
How it was run: as §1

Chenopodium album [5] = assay: Herbicidal activity, preemergence test; details: pre; sprayed onto soil, 800 g of active material per hectare; evaluated 3 weeks after treatment
How it was run: as §1

Galium aparine [6] = assay: Herbicidal activity, preemergence test; details: pre; sprayed onto soil, 800 g of active material per hectare; evaluated 3 weeks after treatment
How it was run: as §1

Glycine max [7] = assay: Herbicidal activity, preemergence test; details: pre; sprayed onto soil, 800 g of active material per hectare; evaluated 3 weeks after treatment
How it was run: as §1

Gossypium hirsutum [8] = assay: Herbicidal activity, preemergence test; details: pre; sprayed onto soil, 800 g of active material per hectare; evaluated 3 weeks after treatment
How it was run: as §1

Hordeum vulgare [9] = assay: Herbicidal activity, preemergence test; details: pre; sprayed onto soil, 800 g of active material per hectare; evaluated 3 weeks after treatment
How it was run: as §1

Ipomoea hederacea [10] = assay: Herbicidal activity, preemergence test; details: pre; sprayed onto soil, 800 g of active material per hectare; evaluated 3 weeks after treatment
How it was run: as §1

Lamium purpureum [11] = assay: Herbicidal activity, preemergence test; details: pre; sprayed onto soil, 800 g of active material per hectare; evaluated 3 weeks after treatment
How it was run: as §1

Matricaria inodora [12] = assay: Herbicidal activity, preemergence test; details: pre; sprayed onto soil, 800 g of active material per hectare; evaluated 3 weeks after treatment
How it was run: as §1

Papaver rhoeas [13] = assay: Herbicidal activity, preemergence test; details: pre; sprayed onto soil, 800 g of active material per hectare; evaluated 3 weeks after treatment
How it was run: as §1

Setaria viridis [14] = assay: Herbicidal activity, preemergence test; details: pre; sprayed onto soil, 800 g of active material per hectare; evaluated 3 weeks after treatment
How it was run: as §1

Stellaria media [15] = assay: Herbicidal activity, preemergence test; details: pre; sprayed onto soil, 800 g of active material per hectare; evaluated 3 weeks after treatment
How it was run: as §1

Triticum aestivum [16] = assay: Herbicidal activity, preemergence test; details: pre; sprayed onto soil, 800 g of active material per hectare; evaluated 3 weeks after treatment
How it was run: as §1

Veronica persica [17] = assay: Herbicidal activity, preemergence test; details: pre; sprayed onto soil, 800 g of active material per hectare; evaluated 3 weeks after treatment
How it was run: as §1

Zea mays [18] = assay: Herbicidal activity, preemergence test; details: pre; sprayed onto soil, 800 g of active material per hectare; evaluated 3 weeks after treatment
How it was run: as §1

Abutilon theophrasti [19] = assay: Herbicidal activity, postemergence test; details: post; sprayed onto seedling plants, 800 g of active material per hectare; evaluated 2 weeks after treatment
How it was run: as §1

Alopecurus myosuroides [20] = assay: Herbicidal activity, postemergence test; details: post; sprayed onto seedling plants, 800 g of active material per hectare; evaluated 2 weeks after treatment
How it was run: as §1

Amaranthus retroflexus [21] = assay: Herbicidal activity, postemergence test; details: post; sprayed onto seedling plants, 800 g of active material per hectare; evaluated 2 weeks after treatment
How it was run: as §1

Ambrosia artemisifolia [22] = assay: Herbicidal activity, postemergence test; details: post; sprayed onto seedling plants, 800 g of active material per hectare; evaluated 2 weeks after treatment
How it was run: as §1

Chenopodium album [23] = assay: Herbicidal activity, postemergence test; details: post; sprayed onto seedling plants, 800 g of active material per hectare; evaluated 2 weeks after treatment
How it was run: as §1

Galium aparine [24] = assay: Herbicidal activity, postemergence test; details: post; sprayed onto seedling plants, 800 g of active material per hectare; evaluated 2 weeks after treatment
How it was run: as §1

Glycine max [25] = assay: Herbicidal activity, postemergence test; details: post; sprayed onto seedling plants, 800 g of active material per hectare; evaluated 2 weeks after treatment
How it was run: as §1

Gossypium hirsutum [26] = assay: Herbicidal activity, postemergence test; details: post; sprayed onto seedling plants, 800 g of active material per hectare; evaluated 2 weeks after treatment
How it was run: as §1

Hordeum vulgare [27] = assay: Herbicidal activity, postemergence test; details: post; sprayed onto seedling plants, 800 g of active material per hectare; evaluated 2 weeks after treatment
How it was run: as §1

Ipomoea hederacea [28] = assay: Herbicidal activity, postemergence test; details: post; sprayed onto seedling plants, 800 g of active material per hectare; evaluated 2 weeks after treatment
How it was run: as §1

Lamium purpureum [29] = assay: Herbicidal activity, postemergence test; details: post; sprayed onto seedling plants, 800 g of active material per hectare; evaluated 2 weeks after treatment
How it was run: as §1

Matricaria inodora [30] = assay: Herbicidal activity, postemergence test; details: post; sprayed onto seedling plants, 800 g of active material per hectare; evaluated 2 weeks after treatment
How it was run: as §1

Papaver rhoeas [31] = assay: Herbicidal activity, postemergence test; details: post; sprayed onto seedling plants, 800 g of active material per hectare; evaluated 2 weeks after treatment
How it was run: as §1

Setaria viridis [32] = assay: Herbicidal activity, postemergence test; details: post; sprayed onto seedling plants, 800 g of active material per hectare; evaluated 2 weeks after treatment
How it was run: as §1

Stellaria media [33] = assay: Herbicidal activity, postemergence test; details: post; sprayed onto seedling plants, 800 g of active material per hectare; evaluated 2 weeks after treatment
How it was run: as §1

Triticum aestivum [34] = assay: Herbicidal activity, postemergence test; details: post; sprayed onto seedling plants, 800 g of active material per hectare; evaluated 2 weeks after treatment
How it was run: as §1

Veronica persica [35] = assay: Herbicidal activity, postemergence test; details: post; sprayed onto seedling plants, 800 g of active material per hectare; evaluated 2 weeks after treatment
How it was run: as §1

Zea mays [36] = assay: Herbicidal activity, postemergence test; details: post; sprayed onto seedling plants, 800 g of active material per hectare; evaluated 2 weeks after treatment
How it was run: as §1

Row | SMILES | ABUTH control rating (0-9) (Abutilon theophrasti [1]) | ALOMY control rating (0-9) (Alopecurus myosuroides [2]) | AMARE control rating (0-9) (Amaranthus retroflexus [3]) | AMBEL control rating (0-9) (Ambrosia artemisifolia [4]) | CHEAL control rating (0-9) (Chenopodium album [5]) | GALAP control rating (0-9) (Galium aparine [6]) | GLXMA control rating (0-9) (Glycine max [7]) | GOSHI control rating (0-9) (Gossypium hirsutum [8]) | HORVW control rating (0-9) (Hordeum vulgare [9]) | IPOHE control rating (0-9) (Ipomoea hederacea [10]) | LAMPU control rating (0-9) (Lamium purpureum [11]) | MATIN control rating (0-9) (Matricaria inodora [12]) | PAPRH control rating (0-9) (Papaver rhoeas [13]) | SETVI control rating (0-9) (Setaria viridis [14]) | STEME control rating (0-9) (Stellaria media [15]) | TRZAW control rating (0-9) (Triticum aestivum [16]) | VERPE control rating (0-9) (Veronica persica [17]) | ZEAMX control rating (0-9) (Zea mays [18]) | ABUTH control rating (0-9) (Abutilon theophrasti [19]) | ALOMY control rating (0-9) (Alopecurus myosuroides [20]) | other results
1 | C[C@H](NC(=O)c1nnc(-c2cc(Cl)cc(Cl)c2)o1)c1ccccc1 [Example 28] | 0 (no effect) | 0 (no effect) | 0 (no effect) | 0 (no effect) | 0 (no effect) | 0 (no effect) | 0 (no effect) | 0 (no effect) | 0 (no effect) | 0 (no effect) | 0 (no effect) | 0 (no effect) | 0 (no effect) | 0 (no effect) | 0 (no effect) | 0 (no effect) | 0 (no effect) | 0 (no effect) | 0 (no effect) | 0 (no effect) | AMARE control rating (0-9) (Amaranthus retroflexus [21]): 0 (no effect); AMBEL control rating (0-9) (Ambrosia artemisifolia [22]): 0 (no effect); CHEAL control rating (0-9) (Chenopodium album [23]): 2 (slight effect); GALAP control rating (0-9) (Galium aparine [24]): 0 (no effect); GLXMA control rating (0-9) (Glycine max [25]): 2 (slight effect); GOSHI control rating (0-9) (Gossypium hirsutum [26]): 0 (no effect); HORVW control rating (0-9) (Hordeum vulgare [27]): 0 (no effect); IPOHE control rating (0-9) (Ipomoea hederacea [28]): 0 (no effect); LAMPU control rating (0-9) (Lamium purpureum [29]): 0 (no effect); MATIN control rating (0-9) (Matricaria inodora [30]): 0 (no effect); PAPRH control rating (0-9) (Papaver rhoeas [31]): 0 (no effect); SETVI control rating (0-9) (Setaria viridis [32]): 0 (no effect); STEME control rating (0-9) (Stellaria media [33]): 0 (no effect); TRZAW control rating (0-9) (Triticum aestivum [34]): 0 (no effect); VERPE control rating (0-9) (Veronica persica [35]): 0 (no effect); ZEAMX control rating (0-9) (Zea mays [36]): 0 (no effect)
2 | C[C@H](NC(=O)c1nnc(-c2ccc(F)cc2F)o1)c1ccccc1 [Example 32] | 2 (slight effect) | 3 (moderate effect) | 9 (complete kill) | 1 (trace effect) | 8 (approaching complete kill) | 2 (slight effect) | 0 (no effect) | 0 (no effect) | 0 (no effect) | 0 (no effect) | 8 (approaching complete kill) | 9 (complete kill) | 8 (approaching complete kill) | 9 (complete kill) | 9 (complete kill) | 0 (no effect) | 9 (complete kill) | 0 (no effect) | 8 (approaching complete kill) | 3 (moderate effect) | AMARE control rating (0-9) (Amaranthus retroflexus [21]): 8 (approaching complete kill); AMBEL control rating (0-9) (Ambrosia artemisifolia [22]): 8 (approaching complete kill); CHEAL control rating (0-9) (Chenopodium album [23]): 9 (complete kill); GALAP control rating (0-9) (Galium aparine [24]): 6 (herbicidal effect); GLXMA control rating (0-9) (Glycine max [25]): 5 (definite injury); GOSHI control rating (0-9) (Gossypium hirsutum [26]): 9 (complete kill); HORVW control rating (0-9) (Hordeum vulgare [27]): 3 (moderate effect); IPOHE control rating (0-9) (Ipomoea hederacea [28]): 9 (complete kill); LAMPU control rating (0-9) (Lamium purpureum [29]): 9 (complete kill); MATIN control rating (0-9) (Matricaria inodora [30]): 9 (complete kill); PAPRH control rating (0-9) (Papaver rhoeas [31]): 9 (complete kill); SETVI control rating (0-9) (Setaria viridis [32]): 9 (complete kill); STEME control rating (0-9) (Stellaria media [33]): 9 (complete kill); TRZAW control rating (0-9) (Triticum aestivum [34]): 3 (moderate effect); VERPE control rating (0-9) (Veronica persica [35]): 9 (complete kill); ZEAMX control rating (0-9) (Zea mays [36]): 3 (moderate effect)

Source: patent EP0726263A2, “Herbicidal (1,3,4)oxadiazoles and thiadiazoles” (American Cyanamid Company, priority 1995, dated 1996)
